Values joined by “and” are separate entries in the source; they are usually repeats but may differ in a detail not shown here. Equal entries are not always repeated. Where two headings read alike, the source gives them in different places. Numbered stars: 1 amine (or outer) side, 2 acyl side, 3 side chain; on linkers, the order of the positions; unused ones are H or OH. Square brackets hold non-standard residues; d marks the D form. Peptide text beside a SMILES is read from it. NMeTrp(1-(4-Br-benzyl)) = CN[C@@H](Cc1cn(Cc2ccc(Br)cc2)c2ccccc12)C(=O)O; X3 = CCn1cc(C[C@@H](C(=O)[*:2])N(C)[*:1])c2ccccc21; Butanoyl(2R-oxy,4-CN) = N#CCC[C@@H](O)C(=O)O; Abu(4,4,4-F3) = N[C@@H](CC(F)(F)F)C(=O)O; NMeL = CN[C@@H](CC(C)C)C(=O)O; NMeA = CN[C@@H](C)C(=O)O
Legend:
[1] = test system: collagen antibody-induced arthritis in BALB/c mice; assay: Anticollagen antibody-induced arthritis model, clinical scores; format: in vivo, mouse; conditions: individual mice
[2] = test system: SARS-CoV-2; format: cell-based; conditions: 48 h
[3] = test system: SARS-CoV-2; format: cell-based; conditions: 48 h; remark: listed apart in the source
[4] = test system: SARS-CoV-2; conditions: infected 48 h
[5] = target: T1, Sec61 (Homo sapiens, UniProt P61619); assay: cell-based; conditions: for IC50: 24 h, range in brackets
T1 construct: endogenous in cells
T1 sequence (P60059 whole entry): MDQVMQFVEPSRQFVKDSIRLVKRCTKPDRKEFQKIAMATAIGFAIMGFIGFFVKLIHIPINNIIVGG
T1 sequence (P61619 whole entry): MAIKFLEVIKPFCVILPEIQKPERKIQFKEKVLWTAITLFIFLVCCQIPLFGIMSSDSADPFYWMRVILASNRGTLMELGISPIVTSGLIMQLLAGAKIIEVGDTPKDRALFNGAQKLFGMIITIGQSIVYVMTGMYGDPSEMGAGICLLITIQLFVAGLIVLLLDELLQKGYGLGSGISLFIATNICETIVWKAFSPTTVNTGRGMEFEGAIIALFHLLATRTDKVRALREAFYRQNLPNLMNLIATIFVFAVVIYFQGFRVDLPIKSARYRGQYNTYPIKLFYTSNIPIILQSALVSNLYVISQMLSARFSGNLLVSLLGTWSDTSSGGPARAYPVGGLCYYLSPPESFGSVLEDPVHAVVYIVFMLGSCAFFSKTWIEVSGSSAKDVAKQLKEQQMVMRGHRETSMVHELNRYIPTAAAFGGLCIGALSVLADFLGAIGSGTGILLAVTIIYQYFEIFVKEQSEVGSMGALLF
T1 sequence (P60468 whole entry, further chain): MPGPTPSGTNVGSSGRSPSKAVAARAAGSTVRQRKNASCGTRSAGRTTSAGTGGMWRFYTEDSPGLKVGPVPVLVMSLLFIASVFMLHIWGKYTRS

## CC(C)C[C@@H]1NC(=O)[C@H](Cc2cn(Cc3ccc(Br)cc3)c3ccccc23)N(C)C(=O)[C@H](CC(F)(F)F)NC(=O)[C@H](CC(C)C)N(C)C(=O)[C@H](CC(F)(F)F)NC(=O)[C@@H](CCC#N)OC(=O)[C@H](C)N(C)C1=O [KZR-508445] (cyclo(L[NMeA][Butanoyl(2R-oxy,4-CN)][Abu(4,4,4-F3)][NMeL][Abu(4,4,4-F3)][NMeTrp(1-(4-Br-benzyl))]))
[1]; 2.5 mg/kg IV QODx3, day 13
  Clinical score: 9 (2×) and 6 and 11 (2×) and 4 and 12 and 8 and 13 and 7
[1]; 2.5 mg/kg IV QODx3, day 14
  Clinical score: 9 (2×) and 5 and 11 (2×) and 2 and 12 and 10 and 13 and 7
[1]; 5 mg/kg IV QODx3, day 13
  Clinical score: 11 (2×) and 5 and 10 and 4 (3×) and 8 and 7 and 9
[1]; 5 mg/kg IV QODx3, day 14
  Clinical score: 12 and 5 and 8 (2×) and 4 (2×) and 3 and 6 and 9 and 11
[1]; 10 mg/kg IV QODx3, day 13
  Clinical score: 4 and 6 (3×) and 9 (2×) and 5 (2×) and 3 and 7
[1]; 10 mg/kg IV QODx3, day 14
  Clinical score: 5 (3×) and 7 (2×) and 9 and 6 and 8 (2×) and 3
[1]; 20 mg/kg IV QODx3, day 4
  Clinical score: 1 (4×) and 2 (2×)
[1]; 20 mg/kg IV QODx3, day 13
  Clinical score: 1 (2×) and 3 (2×) and 2 and 0 and 4
[1]; 20 mg/kg IV QODx3, day 14
  Clinical score: 1 (2×) and 3 (3×) and 2 and 0
[1]; 20 mg/kg IV QW, day 13
  Clinical score: 0 and 2 and 9 and 6 (2×) and 7 (2×) and 8 (2×) and 4
[1]; 20 mg/kg IV QW, day 14
  Clinical score: 0 and 2 and 9 (2×) and 7 (2×) and 6 and 8 (2×) and 5

## C[C@@H]1C[C@H]2[C@@H]3CCC4=CC(=O)C=C[C@]4(C)[C@@]3(F)[C@@H](O)C[C@]2(C)[C@@]1(O)C(=O)CO [dexamethasone, reference compound]
[1]; 1.5mg/kg IP QODx3, day 4
  Clinical score: 1 (5×) and 2 (4×) and 3
[1]; 1.5mg/kg IP QODx3, day 5
  Clinical score: 3 (5×) and 4 (2×) and 2 and 5 (2×)
[1]; 1.5mg/kg IP QODx3, day 6
  Clinical score: 4 (2×) and 6 (6×) and 2 and 5
[1]; 1.5mg/kg IP QODx3, day 7
  Clinical score: 6 (4×) and 4 and 7 (3×) and 5 and 8
[1]; 1.5mg/kg IP QODx3, day 10
  Clinical score: 6 (3×) and 7 (2×) and 9 (2×) and 5 and 11 and 8
[1]; 1.5mg/kg IP QODx3, day 11
  Clinical score: 7 (3×) and 6 (2×) and 8 (2×) and 4 and 9 and 10
[1]; 1.5mg/kg IP QODx3, day 12
  Clinical score: 7 (4×) and 6 (2×) and 9 (3×) and 3
[1]; 1.5mg/kg IP QODx3, day 13
  Clinical score: 7 (3×) and 5 and 6 (2×) and 8 (2×) and 3 and 9
[1]; 1.5mg/kg IP QODx3, day 14
  Clinical score: 6 (2×) and 5 and 8 (2×) and 7 (2×) and 3 and 10 and 9

## CC[C@H]1CN2CCc3cc(OC)c(OC)cc3[C@@H]2C[C@@H]1C[C@H]1NCCc2cc(OC)c(OC)cc21 [Emetine, reference compound]
[2]; 1.11 uM
  infectious virus particle production: 632.456 TCID50 per milliliter
[2]; 3.33 uM
  infectious virus particle production: 632.456 TCID50 per milliliter and 430.887 TCID50 per milliliter
[2]; 10 uM
  infectious virus particle production: 632.456 TCID50 per milliliter
[3]; 0.01 uM
  viral genome copy number: 24100000 and 12600000 and 15400000
[3]; 0.04 uM
  viral genome copy number: 19500000 and 12600000 and 14500000
[3]; 0.12 uM
  viral genome copy number: 9690000 and 6770000 and 10700000
[3]; 1.11 uM
  viral genome copy number: 81000 and 73500 and 71100
[3]; 3.33 uM
  viral genome copy number: 85400 and 62200 and 61600
[3]; 10 uM
  viral genome copy number: 58200 and 54400 and 71200
[4]; 0.01 uM
  cell viability: 70.4141 and 72.6149 and 69.2712
[4]; 0.04 uM
  cell viability: 77.6184 and 78.5394 and 67.5514
[4]; 0.12 uM
  cell viability: 91.8387 and 89.8998 and 85.3326
[4]; 0.37 uM
  cell viability: 98.5387 and 106.593 and 107.116
[4]; 1.11 uM
  cell viability: 85.9306 and 97.0439 and 95.1349
[4]; 3.33 uM
  cell viability: 86.5239 and 91.9706 and 91.8345
[4]; 10 uM
  cell viability: 89.2076 and 95.1684 and 93.0072

## CCn1cc(C[C@H]2C(=O)N[C@@H](CC(C)C)C(=O)N(C)[C@@H](C)C(=O)O[C@H](CCC#N)C(=O)N[C@@H](CC(F)(F)F)C(=O)N(C)[C@@H](CC(C)C)C(=O)N[C@@H](CC(F)(F)F)C(=O)N2C)c2ccccc21 [KZR-9508] (cyclo(L[NMeA][Butanoyl(2R-oxy,4-CN)][Abu(4,4,4-F3)][NMeL][Abu(4,4,4-F3)][X3]))
[5]
  selectivity compared with KZR-8445: greater selectivity
[5]; HER3 signal peptide-GLuc, read-out: IC50 (nM) HER3
  IC50: 103 nM and ~100 nM
[5]; PD1 signal peptide-GLuc, read-out: IC50 (nM) PD1
  IC50: 388 nM
[5]; four of five GLuc reporters
  loss of potency relative to KZR-8445: 10–20 fold
[5]; full-length IL-2-GLuc, read-out: IC50 (nM) IL-2
  IC50: 1420 nM
[5]; full-length TNFα-GLuc, read-out: IC50 (nM) TNFα
  IC50: 908 nM
[5]; prolactin signal peptide-GLuc, read-out: IC50 (nM) Prolactin
  IC50: 25600 nM

## CCn1cc(C[C@H]2C(=O)N[C@@H](CC(C)C)C(=O)N(C)[C@@H](C)C(=O)O[C@H](CCC#N)C(=O)N[C@@H](CC(F)(F)F)C(=O)N(C)[C@@H](CC(C)C)C(=O)N[C@@H](CC(F)(F)F)C(=O)N2C)c2ccccc21 [KZR-0509508] (cyclo(L[NMeA][Butanoyl(2R-oxy,4-CN)][Abu(4,4,4-F3)][NMeL][Abu(4,4,4-F3)][X3]))
[5]; HER3, Concentration 0.32
  GLuc reporter raw signal (replicates): 2917200 and 2920600 and 2895100
[5]; HER3, Concentration 40
  GLuc reporter raw signal (replicates): 2324600 and 2421500 and 2482600
[5]; HER3, Concentration 200
  GLuc reporter raw signal (replicates): 860870 and 901980 and 850270
[5]; HER3, Concentration 1000
  GLuc reporter raw signal (replicates): 128950 and 127590 and 122180
[5]; HER3, Concentration 5000
  GLuc reporter raw signal (replicates): 21107 and 19954 and 21458
[5]; HER3, Concentration 25000
  GLuc reporter raw signal (replicates): 18661 and 19673 and 20195
[5]; IL2, Concentration 0.32
  GLuc reporter raw signal (replicates): 2617800 and 2680800 and 2713900
[5]; IL2, Concentration 8
  GLuc reporter raw signal (replicates): 2560100 and 2737500 and 2592900
[5]; IL2, Concentration 40
  GLuc reporter raw signal (replicates): 2448500 and 2433000 and 2516300
[5]; IL2, Concentration 200
  GLuc reporter raw signal (replicates): 2434300 and 2250900 and 2386200
[5]; IL2, Concentration 1000
  GLuc reporter raw signal (replicates): 1366100 and 1331100 and 1340300
[5]; IL2, Concentration 5000
  GLuc reporter raw signal (replicates): 148660 and 137160 and 137620
[5]; IL2, Concentration 25000
  GLuc reporter raw signal (replicates): 72344 and 71940 and 72808
[5]; PD1, Concentration 0.32
  GLuc reporter raw signal (replicates): 1140200 and 1151600 and 1079300
[5]; PD1, Concentration 8
  GLuc reporter raw signal (replicates): 1090400 and 1094000 and 1069700
[5]; PD1, Concentration 40
  GLuc reporter raw signal (replicates): 1001600 and 1054300 and 960410
[5]; PD1, Concentration 200
  GLuc reporter raw signal (replicates): 810270 and 826880 and 727000
[5]; PD1, Concentration 1000
  GLuc reporter raw signal (replicates): 298160 and 288700 and 294700
[5]; PD1, Concentration 5000
  GLuc reporter raw signal (replicates): 19269 and 21595 and 21074
[5]; PD1, Concentration 25000
  GLuc reporter raw signal (replicates): 12135 and 12576 and 11044
[5]; Prolactin, Concentration 0.32
  GLuc reporter raw signal (replicates): 8343700 and 8651000 and 8237500
[5]; Prolactin, Concentration 8
  GLuc reporter raw signal (replicates): 8140000 and 8910000 and 8852700
[5]; Prolactin, Concentration 40
  GLuc reporter raw signal (replicates): 8482300 and 8946000 and 7991900
[5]; Prolactin, Concentration 200
  GLuc reporter raw signal (replicates): 8151300 and 9013100 and 8191700
[5]; Prolactin, Concentration 1000
  GLuc reporter raw signal (replicates): 7614900 and 8029100 and 7622300
[5]; Prolactin, Concentration 5000
  GLuc reporter raw signal (replicates): 6257700 and 6043200 and 6299800
[5]; Prolactin, Concentration 25000
  GLuc reporter raw signal (replicates): 4760600 and 4742900 and 4623400
[5]; TNFa, Concentration 0.32
  GLuc reporter raw signal (replicates): 157540 and 153990 and 156290
[5]; TNFa, Concentration 8
  GLuc reporter raw signal (replicates): 177590
[5]; TNFa, Concentration 40
  GLuc reporter raw signal (replicates): 174140 and 177930 and 180980
[5]; TNFa, Concentration 200
  GLuc reporter raw signal (replicates): 165100 and 188550 and 172890
[5]; TNFa, Concentration 1000
  GLuc reporter raw signal (replicates): 101080 and 103620 and 107580
[5]; TNFa, Concentration 5000
  GLuc reporter raw signal (replicates): 30162 and 28185 and 30634
[5]; TNFa, Concentration 25000
  GLuc reporter raw signal (replicates): 17845 and 17474 and 16301

— publication PMC10449633 (Nature Chemical Biology, 2023)
